What was measured:
[1] = test system: T4 lymphocytes (cell line: CEM-SS); experiment: Toxicity control: uninfected T4 lymphocytes (CEM-SS) with compound only, XTT; type: cell-based; details: 6 days
Protocol: (§1) T4 lymphocytes (cell line: CEM-SS), which are killed by HIV within two replication cycles, are used as the test system. That which is detected is the inhibition of cell death. The compound according to the invention is dissolved in DMSO and this solution is diluted with cell culture medium in the ratio 1:100. […] All the cell cultures are examined spectrophotometrically in order to quantify production of formazan. In addition to this, individual cultures are examined microscopically in order to confirm the anti-HIV activity. The virus-infected cells which have been treated with the compound according to the invention are compared with the standard on the same plate. The in-vitro anti-HIV activity data, which were determined within the context of a National Cancer Institute Developmental Therapeutics Program, are summarized in the following table.

[2] = test system: HIV; experiment: In-vitro anti-HIV effect: inhibition of HIV-induced cell death of T4 lymphocytes (CEM-SS), XTT; type: cell-based; details: 6 days
Protocol: as §1

CCCCCCCCCCCCCCCC(=O)Nc1ccn(C2CCC(COP(=O)(O)OCC(COP(=O)(O)OCC3OC(n4cc(C)c(=O)[nH]c4=O)CC3N=[N+]=[N-])OC(=O)CCCCCCCCCCCCCCC)O2)c(=O)n1 (racemic) [NSC 704532-F/1, N^4-palmitoyl-2′,3′-dideoxycytidylyl-(5′→1)-2-O-palmitoyl-rac-glycerylyl-(3→5′)-3′-azido-2′,3′-dideoxythymidine]
IC50 ([1]; read-out: 50% cell growth (IC50)): > 1 µM | Percent of control uninfected ([1]; Dose 1.00 * 10^−6 molar): 119.96% | Percent of control uninfected ([1]; Dose 1.00 * 10^−7 molar): 112.26% | Percent of control uninfected ([1]; Dose 1.00 * 10^−8 molar): 99.64% | Percent of control uninfected ([1]; Dose 1.00 * 10^−9 molar): 105.03% | Percent of control uninfected ([1]; Dose 3.16 * 10^−7 molar): 112.02% | Percent of control uninfected ([1]; Dose 3.16 * 10^−8 molar): 104.96% | Percent of control uninfected ([1]; Dose 3.17 * 10^−9 molar): 101.22% | Percent of control uninfected ([1]; Dose 3.17 * 10^−10 molar): 105.43% | Percent of control infected ([2]; Dose 1.00 * 10^−6 molar): 113.49% | Percent protection ([2]; Dose 1.00 * 10^−6 molar, HIV-infected CEM-SS): 114.05% | Percent of control infected ([2]; Dose 1.00 * 10^−7 molar): 106.07% | Percent protection ([2]; Dose 1.00 * 10^−7 molar, HIV-infected CEM-SS): 106.32% | Percent of control infected ([2]; Dose 1.00 * 10^−8 molar): 23.62% | Percent protection ([2]; Dose 1.00 * 10^−8 molar, HIV-infected CEM-SS): 20.44% | Percent of control infected ([2]; Dose 1.00 * 10^−9 molar): 4.21% | Percent protection ([2]; Dose 1.00 * 10^−9 molar, HIV-infected CEM-SS): 0.22% | Percent of control infected ([2]; Dose 3.16 * 10^−7 molar): 104.16% | Percent protection ([2]; Dose 3.16 * 10^−7 molar, HIV-infected CEM-SS): 104.33% | Percent of control infected ([2]; Dose 3.16 * 10^−8 molar): 80.22% | Percent protection ([2]; Dose 3.16 * 10^−8 molar, HIV-infected CEM-SS): 79.40% | Percent of control infected ([2]; Dose 3.17 * 10^−9 molar): 14.25% | Percent protection ([2]; Dose 3.17 * 10^−9 molar, HIV-infected CEM-SS): 10.68% | Percent of control infected ([2]; Dose 3.17 * 10^−10 molar): 5.80% | Percent protection ([2]; Dose 3.17 * 10^−10 molar, HIV-infected CEM-SS): 1.88% | EC50 ([2]; HIV-infected CEM-SS, read-out: 50% protection from infection (EC5.)): 0.0179 µM

Reference: US6787525B1, “Glyceryl nucleotides, method for the production thereof and their use” (priority 1998, dated 2004)
